Measurements published in PMC8371461 (Frontiers in Pharmacology, 2021).
Where two headings read alike, the source gives them in different places.

How the values were obtained:
[1] = target: T1, ADCK3 (Homo sapiens, UniProt Q8NI60); assay: kinome scan; type: binding; conditions: 10 µM
T1 construct: purchased DiscoverX (KINOMEscan)

[2] = target: T2, ADCK4 (Homo sapiens, UniProt Q96D53); assay: kinome scan; type: binding; conditions: 10 µM
T2 construct: purchased DiscoverX (KINOMEscan)

[3] = target: T3, ARK5 (Homo sapiens, UniProt O60285); assay: kinome scan; type: binding; conditions: 10 µM
T3 construct: purchased DiscoverX (KINOMEscan)

[4] = target: T4, BMPR2 (Homo sapiens, UniProt Q13873); assay: kinome scan; type: binding; conditions: 10 µM
T4 construct: purchased DiscoverX (KINOMEscan)

[5] = target: T5, CDK5 (Homo sapiens, UniProt Q00535); assay: kinome scan; type: binding; conditions: 10 µM
T5 construct: purchased DiscoverX (KINOMEscan)
T5 sequence (Q00535 whole entry): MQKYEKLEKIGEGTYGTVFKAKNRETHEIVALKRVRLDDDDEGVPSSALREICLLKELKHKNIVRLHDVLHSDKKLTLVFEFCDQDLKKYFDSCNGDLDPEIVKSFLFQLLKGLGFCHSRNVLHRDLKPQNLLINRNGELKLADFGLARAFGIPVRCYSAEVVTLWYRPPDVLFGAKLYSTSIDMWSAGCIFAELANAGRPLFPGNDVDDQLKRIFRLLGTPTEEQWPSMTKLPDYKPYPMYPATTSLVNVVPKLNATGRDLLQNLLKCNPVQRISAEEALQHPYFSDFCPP

[6] = target: T6, CDK8 (Homo sapiens, UniProt P49336); assay: kinome scan; type: binding; conditions: 10 µM
T6 construct: purchased DiscoverX (KINOMEscan)

[7] = target: T7, DMPK (Homo sapiens, UniProt Q09013); assay: kinome scan; type: binding; conditions: 10 µM
T7 construct: purchased DiscoverX (KINOMEscan)

[8] = target: EGFR(L747-T751delSins); assay: kinome scan; type: binding, human; conditions: 10 µM
[9] = target: T8, EPHA2 (Homo sapiens, UniProt P29317); assay: kinome scan; type: binding; conditions: 10 µM
T8 construct: purchased DiscoverX (KINOMEscan)

[10] = target: T9, ERBB2 (Homo sapiens, UniProt P04626); assay: kinome scan; type: binding; conditions: 10 µM
T9 construct: purchased DiscoverX (KINOMEscan)

[11] = target: T10, FLT3(D835Y) (Homo sapiens, UniProt P36888, D835Y); assay: kinome scan; type: binding; conditions: 10 µM
T10 construct: purchased DiscoverX (KINOMEscan)

[12] = target: T11, FLT3(K663Q) (Homo sapiens, UniProt P36888, K663Q); assay: kinome scan; type: binding
T11 construct: purchased DiscoverX (KINOMEscan)

[13] = target: T12, HIPK1 (Homo sapiens, UniProt Q86Z02); assay: kinome scan; type: binding; conditions: 10 µM
T12 construct: purchased DiscoverX (KINOMEscan)

[14] = target: T13, ICK (Homo sapiens, UniProt Q9UPZ9); assay: kinome scan; type: binding; conditions: 10 µM
T13 construct: purchased DiscoverX (KINOMEscan)

[15] = target: T14, KIT(D816H) (Homo sapiens, UniProt P10721, D816H); assay: kinome scan; type: binding; conditions: 10 µM
T14 construct: purchased DiscoverX (KINOMEscan)

[16] = target: T15, KIT(V559DV654A) (Homo sapiens, UniProt P10721, V559D/V654A); assay: kinome scan; type: binding; conditions: 10 µM
T15 construct: purchased DiscoverX (KINOMEscan)

[17] = target: T16, LRRK2(G2019S) (Homo sapiens, UniProt Q5S007, G2019S); assay: kinome scan; type: binding; conditions: 10 µM
T16 construct: purchased DiscoverX (KINOMEscan)
T16 sequence (Q5S007 whole entry G2019S): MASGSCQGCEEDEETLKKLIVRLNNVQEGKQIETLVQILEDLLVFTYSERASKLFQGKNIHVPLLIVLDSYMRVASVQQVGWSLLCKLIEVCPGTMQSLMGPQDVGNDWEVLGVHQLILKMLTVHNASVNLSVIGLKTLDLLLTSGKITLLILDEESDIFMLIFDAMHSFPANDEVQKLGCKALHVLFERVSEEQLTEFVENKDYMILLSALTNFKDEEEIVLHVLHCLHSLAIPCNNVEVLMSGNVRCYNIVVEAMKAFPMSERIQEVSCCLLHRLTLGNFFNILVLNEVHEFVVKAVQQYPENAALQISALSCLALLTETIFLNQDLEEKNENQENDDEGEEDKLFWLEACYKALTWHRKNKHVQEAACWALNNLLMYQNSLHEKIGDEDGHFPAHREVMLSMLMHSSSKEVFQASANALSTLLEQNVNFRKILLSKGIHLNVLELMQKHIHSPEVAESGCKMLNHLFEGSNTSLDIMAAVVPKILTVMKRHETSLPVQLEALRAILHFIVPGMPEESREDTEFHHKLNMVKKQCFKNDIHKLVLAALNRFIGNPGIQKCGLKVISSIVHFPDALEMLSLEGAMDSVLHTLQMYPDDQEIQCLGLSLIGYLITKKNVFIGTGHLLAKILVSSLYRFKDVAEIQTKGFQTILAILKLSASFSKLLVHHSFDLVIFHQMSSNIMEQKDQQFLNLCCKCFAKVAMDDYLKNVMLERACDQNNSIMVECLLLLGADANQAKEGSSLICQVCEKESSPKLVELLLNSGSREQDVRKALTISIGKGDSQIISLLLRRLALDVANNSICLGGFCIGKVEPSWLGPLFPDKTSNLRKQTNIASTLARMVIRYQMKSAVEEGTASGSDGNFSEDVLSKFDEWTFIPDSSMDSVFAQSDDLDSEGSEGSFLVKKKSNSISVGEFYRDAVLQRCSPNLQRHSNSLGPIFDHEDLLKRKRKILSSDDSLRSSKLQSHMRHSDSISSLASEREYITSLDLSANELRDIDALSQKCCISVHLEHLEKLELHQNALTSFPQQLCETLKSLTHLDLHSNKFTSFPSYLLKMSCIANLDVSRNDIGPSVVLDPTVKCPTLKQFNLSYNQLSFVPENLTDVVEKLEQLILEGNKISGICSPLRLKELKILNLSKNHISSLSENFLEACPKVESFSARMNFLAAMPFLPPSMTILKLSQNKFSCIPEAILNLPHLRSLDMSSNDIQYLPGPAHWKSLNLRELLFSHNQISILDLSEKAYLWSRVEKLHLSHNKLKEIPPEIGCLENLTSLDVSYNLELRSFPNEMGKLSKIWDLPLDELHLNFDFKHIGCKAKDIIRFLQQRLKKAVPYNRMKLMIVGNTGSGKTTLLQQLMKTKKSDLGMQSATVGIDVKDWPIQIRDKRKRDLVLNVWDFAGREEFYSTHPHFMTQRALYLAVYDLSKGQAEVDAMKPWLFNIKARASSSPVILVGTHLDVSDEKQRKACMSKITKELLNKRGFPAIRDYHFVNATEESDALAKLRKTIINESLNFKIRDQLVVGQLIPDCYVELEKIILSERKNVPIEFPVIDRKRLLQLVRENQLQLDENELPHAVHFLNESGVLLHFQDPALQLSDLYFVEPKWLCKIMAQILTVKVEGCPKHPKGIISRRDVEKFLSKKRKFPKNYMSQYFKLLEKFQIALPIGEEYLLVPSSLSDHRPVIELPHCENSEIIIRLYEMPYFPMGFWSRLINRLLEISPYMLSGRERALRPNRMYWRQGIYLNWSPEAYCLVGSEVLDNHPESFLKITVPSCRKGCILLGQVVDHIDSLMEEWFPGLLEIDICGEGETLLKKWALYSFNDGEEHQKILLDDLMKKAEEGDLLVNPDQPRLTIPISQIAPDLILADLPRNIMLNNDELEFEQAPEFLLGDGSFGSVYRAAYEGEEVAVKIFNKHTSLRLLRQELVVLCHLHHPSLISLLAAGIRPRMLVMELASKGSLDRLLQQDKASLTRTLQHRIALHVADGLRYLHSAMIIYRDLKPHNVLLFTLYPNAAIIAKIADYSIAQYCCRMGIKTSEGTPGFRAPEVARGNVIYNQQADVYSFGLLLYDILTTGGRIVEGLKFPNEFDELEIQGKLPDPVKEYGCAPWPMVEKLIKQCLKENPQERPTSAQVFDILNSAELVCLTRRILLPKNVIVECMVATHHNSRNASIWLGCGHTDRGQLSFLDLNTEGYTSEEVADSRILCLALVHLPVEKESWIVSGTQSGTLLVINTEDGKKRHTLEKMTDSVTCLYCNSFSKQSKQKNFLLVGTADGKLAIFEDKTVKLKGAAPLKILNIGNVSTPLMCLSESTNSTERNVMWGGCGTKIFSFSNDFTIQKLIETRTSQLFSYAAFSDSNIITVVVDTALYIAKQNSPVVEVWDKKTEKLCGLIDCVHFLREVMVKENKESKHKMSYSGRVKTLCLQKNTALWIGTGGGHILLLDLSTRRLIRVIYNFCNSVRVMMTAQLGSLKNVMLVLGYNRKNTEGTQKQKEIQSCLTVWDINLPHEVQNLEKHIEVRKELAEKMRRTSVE

[18] = target: T17, MAST1 (Homo sapiens, UniProt Q9Y2H9); assay: kinome scan; type: binding; conditions: 10 µM
T17 construct: purchased DiscoverX (KINOMEscan)

[19] = target: T18, MINK (Homo sapiens, UniProt Q8N4C8); assay: kinome scan; type: binding; conditions: 10 µM
T18 construct: purchased DiscoverX (KINOMEscan)

[20] = target: T19, MKNK2 (Homo sapiens, UniProt Q9HBH9); assay: kinome scan; type: binding
T19 construct: purchased DiscoverX (KINOMEscan)
T19 sequence (Q9HBH9 whole entry): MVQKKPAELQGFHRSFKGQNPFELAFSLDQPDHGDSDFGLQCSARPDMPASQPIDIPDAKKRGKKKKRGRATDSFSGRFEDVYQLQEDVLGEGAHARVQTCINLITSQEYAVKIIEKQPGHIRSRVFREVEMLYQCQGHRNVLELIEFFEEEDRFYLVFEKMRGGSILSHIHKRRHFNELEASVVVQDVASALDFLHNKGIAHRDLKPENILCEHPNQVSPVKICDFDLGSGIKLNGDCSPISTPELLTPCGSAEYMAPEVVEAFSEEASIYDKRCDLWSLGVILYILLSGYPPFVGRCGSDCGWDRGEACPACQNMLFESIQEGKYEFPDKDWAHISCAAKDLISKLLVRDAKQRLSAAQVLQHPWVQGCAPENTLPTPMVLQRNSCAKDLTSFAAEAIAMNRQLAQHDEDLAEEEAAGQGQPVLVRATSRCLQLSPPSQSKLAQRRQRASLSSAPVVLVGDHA

[21] = target: T20, MLK1 (Homo sapiens, UniProt P80192); assay: kinome scan; type: binding; conditions: 10 µM
T20 construct: purchased DiscoverX (KINOMEscan)

[22] = target: T21, MST1R (Homo sapiens, UniProt Q04912); assay: kinome scan; type: binding; conditions: 10 µM
T21 construct: purchased DiscoverX (KINOMEscan)

[23] = target: T22, MUSK (Homo sapiens, UniProt O15146); assay: kinome scan; type: binding; conditions: 10 µM
T22 construct: purchased DiscoverX (KINOMEscan)

[24] = target: T23, MYLK (Homo sapiens, UniProt Q15746); assay: kinome scan; type: binding; conditions: 10 µM
T23 construct: purchased DiscoverX (KINOMEscan)

[25] = target: T24, MYLK4 (Homo sapiens, UniProt Q86YV6); assay: kinome scan; type: binding; conditions: 10 µM
T24 construct: purchased DiscoverX (KINOMEscan)
T24 sequence (Q86YV6 whole entry): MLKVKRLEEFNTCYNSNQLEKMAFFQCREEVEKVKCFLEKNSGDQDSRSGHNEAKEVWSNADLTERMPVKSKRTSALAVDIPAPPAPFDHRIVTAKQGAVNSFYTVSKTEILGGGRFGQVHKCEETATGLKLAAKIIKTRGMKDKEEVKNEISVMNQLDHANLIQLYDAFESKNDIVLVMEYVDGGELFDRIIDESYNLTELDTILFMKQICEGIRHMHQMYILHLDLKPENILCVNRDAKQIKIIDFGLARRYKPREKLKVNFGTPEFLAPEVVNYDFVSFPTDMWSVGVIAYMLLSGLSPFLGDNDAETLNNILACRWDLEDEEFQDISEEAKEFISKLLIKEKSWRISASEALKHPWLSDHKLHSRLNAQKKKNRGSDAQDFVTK

[26] = target: T25, NEK2 (Homo sapiens, UniProt P51955); assay: kinome scan; type: binding; conditions: 10 µM
T25 construct: purchased DiscoverX (KINOMEscan)

[27] = target: T26, PIK3CA(H1047L) (Homo sapiens, UniProt P42336, H1047L); assay: kinome scan; type: binding; conditions: 10 µM
T26 construct: purchased DiscoverX (KINOMEscan)

[28] = target: T27, PIK3CA(I800L) (Homo sapiens, UniProt P42336, I800L); assay: kinome scan; type: binding; conditions: 10 µM
T27 construct: purchased DiscoverX (KINOMEscan)

[29] = target: T28, PIK3CD (Homo sapiens, UniProt O00329); assay: kinome scan; type: binding; conditions: 10 µM
T28 construct: purchased DiscoverX (KINOMEscan)

[30] = target: T29, PIK4CB (Homo sapiens, UniProt Q9UBF8); assay: kinome scan; type: binding
T29 construct: purchased DiscoverX (KINOMEscan)
T29 sequence (Q9UBF8 whole entry): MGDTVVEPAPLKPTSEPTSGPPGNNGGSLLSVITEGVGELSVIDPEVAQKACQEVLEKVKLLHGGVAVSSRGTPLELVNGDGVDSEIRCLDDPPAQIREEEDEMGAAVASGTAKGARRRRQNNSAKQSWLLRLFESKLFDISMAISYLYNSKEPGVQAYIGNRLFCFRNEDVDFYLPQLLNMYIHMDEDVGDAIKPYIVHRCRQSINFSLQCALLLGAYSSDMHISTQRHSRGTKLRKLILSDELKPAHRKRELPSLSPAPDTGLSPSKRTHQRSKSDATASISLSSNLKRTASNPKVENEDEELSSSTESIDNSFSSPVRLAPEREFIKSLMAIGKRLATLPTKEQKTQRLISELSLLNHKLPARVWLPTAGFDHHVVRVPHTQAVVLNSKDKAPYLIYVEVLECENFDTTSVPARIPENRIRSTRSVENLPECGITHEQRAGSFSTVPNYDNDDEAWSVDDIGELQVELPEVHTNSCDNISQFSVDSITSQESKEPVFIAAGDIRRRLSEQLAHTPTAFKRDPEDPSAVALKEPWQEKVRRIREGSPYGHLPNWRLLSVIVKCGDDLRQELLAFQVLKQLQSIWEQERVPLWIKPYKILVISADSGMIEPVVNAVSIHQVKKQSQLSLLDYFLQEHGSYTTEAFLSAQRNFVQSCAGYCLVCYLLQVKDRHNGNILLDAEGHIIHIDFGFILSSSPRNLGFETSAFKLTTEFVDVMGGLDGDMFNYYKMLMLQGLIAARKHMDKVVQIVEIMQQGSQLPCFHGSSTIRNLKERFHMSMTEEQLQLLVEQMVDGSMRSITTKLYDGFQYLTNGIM

[31] = target: T30, SGK3 (Homo sapiens, UniProt Q96BR1); assay: kinome scan; type: binding; conditions: 10 µM
T30 construct: purchased DiscoverX (KINOMEscan)

[32] = target: T31, SRC (Homo sapiens, UniProt P12931); assay: kinome scan; type: binding; conditions: 10 µM
T31 construct: purchased DiscoverX (KINOMEscan)

[33] = target: T32, TRPM6 (Homo sapiens, UniProt Q9BX84); assay: kinome scan; type: binding; conditions: 10 µM
T32 construct: purchased DiscoverX (KINOMEscan)

[34] = target: T33, TYRO3 (Homo sapiens, UniProt Q06418); assay: kinome scan; type: binding; conditions: 10 µM
T33 construct: purchased DiscoverX (KINOMEscan)

[35] = tested on: ERK; assay: ERK phosphorylation by Western blotting; type: cell-based, mouse; conditions: PSC, data not shown
Text: It is noteworthy that, in parallel, a regulation of the ERK pathway was not confirmed at the protein level, assessed by the study of ERK phosphorylation by Western blotting (data not shown). The effects of the drug on proliferation or differentiation was next investigated in quantitative assays. The rate of cell proliferation of the PSC, assessed during five days by quantification of intracellular ATP, was not affected by the drug (Figure 2A). The CGR8 PSC line was stably transduced with a dual promoter/reporter gene construct containing a ubiquitous promoter (EF1αS) controlling the expression of Renilla Luciferase (RLuc) and also an early neural-specific promoter (Tα1), controlling the expression of Firefly Luciferase (FLuc). Then, neural differentiation was quantified by the normalized ratio between FLuc and RLuc ([Suter et al., 2009]). […] After 72 h, the cells were lysed for RLuc and FLuc luminescence measurement in the presence of their substrates, each signal being normalized with the signal obtained with the vehicle alone (DMSO).

[36] = tested on: Euchromatic histone-lysine N-methyltransferase 2; set-up: method as in PubChem Bioassay ID 504,332; conditions: reported activity, data mining; ref PubChem Bioassay ID 504,332; cited from earlier work

T2 sequence (Q96D53 whole entry): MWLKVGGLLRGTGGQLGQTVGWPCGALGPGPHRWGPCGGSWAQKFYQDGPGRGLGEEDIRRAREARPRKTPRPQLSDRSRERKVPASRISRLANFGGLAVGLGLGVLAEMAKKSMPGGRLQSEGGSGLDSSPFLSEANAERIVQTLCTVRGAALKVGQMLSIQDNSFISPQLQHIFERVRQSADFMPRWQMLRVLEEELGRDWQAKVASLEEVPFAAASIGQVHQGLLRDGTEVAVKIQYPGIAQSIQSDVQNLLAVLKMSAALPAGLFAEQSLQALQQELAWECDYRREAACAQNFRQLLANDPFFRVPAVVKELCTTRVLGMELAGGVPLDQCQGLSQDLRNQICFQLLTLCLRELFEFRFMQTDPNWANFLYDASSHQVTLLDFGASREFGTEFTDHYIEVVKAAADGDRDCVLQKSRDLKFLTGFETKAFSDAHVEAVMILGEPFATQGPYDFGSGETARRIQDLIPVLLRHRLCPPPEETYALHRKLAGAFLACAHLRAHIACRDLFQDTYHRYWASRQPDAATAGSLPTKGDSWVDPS

SMILES: Nc1ccc(N=Nc2ccccc2)c(N)n1 [phenazopyridine, 2,6-diamino-3-(phenylazo)pyridine]
- kinase inhibition [1]: 91
- kinase inhibition [2]: 90
- kinase inhibition [3]: 89
- kinase inhibition [4]: 97
- kinase inhibition [5]: 90
- kinase inhibition [6]: 86
- kinase inhibition [7]: 89
- kinase inhibition [8]: 80
- kinase inhibition [9]: 95
- kinase inhibition [10]: 64
- percent of control (remaining binding) [11]: 42
- remaining binding (% of control) ([12]; FLT3(K663Q), 10 µM): 21
- remaining binding at 10 µM ([12]; FLT3 as printed (Table S4: FLT3(K663Q)), read-out: % Of control): 21%
- kinase inhibition [13]: 58
- kinase inhibition [14]: 90
- kinase inhibition [15]: 85
- kinase inhibition [16]: 87
- kinase inhibition [17]: 91
- kinase inhibition [18]: 85
- kinase inhibition [19]: 90
- remaining binding at 10 µM ([20]; MKNK2, read-out: % Of control): 6.6%
- remaining binding (% of control) ([20]; MKNK2, 10 µM): 6.6
- remaining binding at 10 µM ([20]; MNK2, read-out: Kinome scan (% of control at 10 µM)): 6.6%
- kinase inhibition [21]: 87
- kinase inhibition [22]: 94
- kinase inhibition [23]: 91
- kinase inhibition [24]: 100
- kinase inhibition [25]: 87
- kinase inhibition [26]: 81
- kinase inhibition [27]: 80
- kinase inhibition [28]: 88
- kinase inhibition [29]: 78
- remaining kinase binding (% of control) ([30]; 10 µM): 4.6
- remaining binding at 10 µM ([30]; read-out: % Of control): 4.6%
- kinase inhibition [31]: 100
- kinase inhibition [32]: 100
- kinase inhibition [33]: 100
- kinase inhibition [34]: 94
- regulation of the ERK pathway (ERK phosphorylation) [35]: not confirmed
- Concentration [36]: 10 µM
